Measurements as given in patent US20260034094A1, “COMPOSITIONS AND METHODS FOR INDUCING FERROPTOSIS” (Kojin Therapeutics, Inc., priority 2022, published 2026).

Tests used:
human recombinant GCL = human recombinant GCL (Homo sapiens (Human), UniProt P48506); assay: GCL enzyme profiling assay (ADP-Glo luminescence); format: biochemical; details: human recombinant GCL, ADP-Glo; read-out: GCL IC50
In short: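 ADP-Glo luminescence readout; 5 nM enzyme preincubated 1 h at 22 °C with 0.6 mM ATP, then started with 1 mM glutamate and 1.2 mM α-aminobutyrate, stopped after 2 h. Buffer: HEPES pH 7.5, MgCl2, DTT, BSA, 0.2% F-127, 1% DMSO. IC50 from four-parameter logistic fit.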

RKN cells = assay: RKN cell profiling assay (cell viability, CellTiter-Glo); format: cell-based; details: cell viability, read-out: Cell Killing EC50
In short: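 Cells seeded at 1,000/well in F-12 with 10% FBS, left to adhere 24 h, then compound-treated for 96 h at 0.5% final DMSO. Viability by CellTiter-Glo luminescence; EC50 from four-parameter logistic fit. Ferroptosis rescue runs included 1.5 μM ferrostatin-1 added at seeding.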

human recombinant GCL, sequence (P48506 whole entry): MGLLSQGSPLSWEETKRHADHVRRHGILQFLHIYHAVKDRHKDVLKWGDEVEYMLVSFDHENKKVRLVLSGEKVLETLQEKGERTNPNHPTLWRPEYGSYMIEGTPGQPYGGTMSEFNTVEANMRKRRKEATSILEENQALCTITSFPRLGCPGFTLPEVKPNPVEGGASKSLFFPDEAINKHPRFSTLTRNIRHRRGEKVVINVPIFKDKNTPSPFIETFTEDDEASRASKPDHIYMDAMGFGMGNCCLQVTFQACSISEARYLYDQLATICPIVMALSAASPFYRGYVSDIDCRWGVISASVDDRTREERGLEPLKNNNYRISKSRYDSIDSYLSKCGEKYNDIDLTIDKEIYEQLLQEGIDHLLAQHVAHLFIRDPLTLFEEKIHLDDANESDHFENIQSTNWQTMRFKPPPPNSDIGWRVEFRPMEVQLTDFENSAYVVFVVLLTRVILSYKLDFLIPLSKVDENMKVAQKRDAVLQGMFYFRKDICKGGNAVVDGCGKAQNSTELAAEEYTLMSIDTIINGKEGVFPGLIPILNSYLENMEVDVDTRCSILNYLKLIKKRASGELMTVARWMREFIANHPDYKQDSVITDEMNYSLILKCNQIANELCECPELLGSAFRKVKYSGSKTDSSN

| SMILES | IC50 (human recombinant GCL) | EC50 (RKN cells) |
| --- | --- | --- |
| N=S(=O)(CCC(c1ccc(-c2cc(F)cc(F)c2)cc1)C(F)(F)F)CC[C@H](N)C(=O)O (stereo partly drawn) [Compound 222] | ≤ 20 µM | < 1000 µM |
| CCCc1ccc(C(CCS(=N)(=O)CC[C@H](N)C(=O)O)C(F)(F)F)cc1 (stereo partly drawn) [Compound 223] | ≤ 20 µM | < 1000 µM |
| CCCCc1ccc(C(CCS(=N)(=O)CC[C@H](N)C(=O)O)C(F)(F)F)cc1 (stereo partly drawn) [Compound 224] | ≤ 20 µM | < 1000 µM |
| N=S(=O)(CCC(c1ccc(-c2cc(F)ccc2O)cc1)C(F)(F)F)CC[C@H](N)C(=O)O (stereo partly drawn) [Compound 232] | ≤ 20 µM | < 1000 µM |
| N=S(=O)(CCC(c1ccc(-c2ccc(OC(F)(F)F)cc2)cc1)C(F)(F)F)CC[C@H](N)C(=O)O (stereo partly drawn) [Compound 233] | ≤ 20 µM | < 1000 µM |
| N=S(=O)(CCC(c1ccc(-c2cc(Cl)cc(Cl)c2)cc1)C(F)(F)F)CC[C@H](N)C(=O)O (stereo partly drawn) [Compound 234] | ≤ 20 µM | ≥ 1000 µM |
| COc1ccc(Cl)cc1-c1ccc(C(CCS(=N)(=O)CC[C@H](N)C(=O)O)C(F)(F)F)cc1 (stereo partly drawn) [Compound 236] | ≤ 20 µM | < 1000 µM |
| N=S(=O)(CCC(c1ccc(-c2ccc(Cl)c(C(F)(F)F)c2)cc1)C(F)(F)F)CC[C@H](N)C(=O)O (stereo partly drawn) [Compound 237] | ≤ 20 µM | < 1000 µM |
| N=S(=O)(CCC(c1ccc(-c2cc(F)ccc2Cl)cc1)C(F)(F)F)CC[C@H](N)C(=O)O (stereo partly drawn) [Compound 238] | ≤ 20 µM | < 1000 µM |
| N=S(=O)(CCC(c1ccc(-c2cccc(N)c2)cc1)C(F)(F)F)CC[C@H](N)C(=O)O (stereo partly drawn) [Compound 239] | ≤ 20 µM | ≥ 1000 µM |
| N#Cc1cccc(-c2ccc(C(CCS(=N)(=O)CC[C@H](N)C(=O)O)C(F)(F)F)cc2)c1F (stereo partly drawn) [Compound 240] | ≤ 20 µM | ≥ 1000 µM |
| COc1cncc(-c2ccc(C(CCS(=N)(=O)CC[C@H](N)C(=O)O)C(F)(F)F)cc2)c1 (stereo partly drawn) [Compound 242] | ≤ 20 µM | ≥ 1000 µM |
| N#Cc1ccc(-c2ccc(C(CCS(=N)(=O)CC[C@H](N)C(=O)O)C(F)(F)F)cc2)cn1 (stereo partly drawn) [Compound 244] | ≤ 20 µM | ≥ 1000 µM |
| N=S(=O)(CCC(c1ccc(-c2cncc(F)c2)cc1)C(F)(F)F)CC[C@H](N)C(=O)O (stereo partly drawn) [Compound 247] | ≤ 20 µM | ≥ 1000 µM |
| N=S(=O)(CCC(c1ccc(-c2cncc(C(F)(F)F)c2)cc1)C(F)(F)F)CC[C@H](N)C(=O)O (stereo partly drawn) [Compound 250] | ≤ 20 µM | ≥ 1000 µM |
| N=S(=O)(CCC(Cc1ccccc1)C(F)(F)F)CC[C@H](N)C(=O)O (stereo partly drawn) [Compound 292, (2S)-2-amino-4-(3-benzyl-4,4,4-trifluorobutylsulfonimidoyl)butanoic acid] | ≤ 20 µM | ≥ 1000 µM |
| CC(CCS(=N)(=O)CC[C@H](N)C(=O)O)(c1ccccc1)C(F)(F)F (stereo partly drawn) [Compound 293] | ≤ 20 µM | ≥ 1000 µM |
| N=S(=O)(CC[C@H](N)C(=O)O)CCC12CC(C1)C2 (stereo partly drawn) [Compound 294] | ≤ 20 µM | < 1000 µM |
| COC(C)(C)CCCS(=N)(=O)CC[C@H](N)C(=O)O (stereo partly drawn) [Compound 295] | 20 to 2000 µM | ≥ 1000 µM |
| N=S(=O)(CC[C@H](N)C(=O)O)CCC1(C(F)(F)F)CCC1 (stereo partly drawn) [Compound 296] | ≤ 20 µM | < 1000 µM |
| N=S(=O)(CC[C@H](N)C(=O)O)CCC1(O)CCCCC1 (stereo partly drawn) [Compound 297] | 20 to 2000 µM | ≥ 1000 µM |
| C#CC(C)(C)CCS(=N)(=O)CC[C@H](N)C(=O)O (stereo partly drawn) [Compound 299] | 20 to 2000 µM | < 1000 µM |
| CC1(CCS(=N)(=O)CC[C@H](N)C(=O)O)CCCCC1 (stereo partly drawn) [Compound 300] | 20 to 2000 µM | ≥ 1000 µM |
| N=S(=O)(CC[C@H](N)C(=O)O)CCC(O)(C(F)(F)F)C(F)(F)F (stereo partly drawn) [Compound 301] | ≤ 20 µM | < 1000 µM |
